From ChEMBL document CHEMBL1909046, “DrugMatrix in vitro pharmacology data”

Tests used:
[1] = biological target: Beta-2 adrenergic receptor (Homo sapiens, UniProt P07550); assay: DRUGMATRIX: Adrenergic beta2 radioligand binding (ligand: [3H] CGP-12177); type: cell membranes, CHO, Membrane; conditions: Not Active = under 50% inhibition at 10 µM
[2] = biological target: T1, C-X-C chemokine receptor type 1 (Homo sapiens, UniProt P25024); note: in other assays of this panel Not Active means under 50% inhibition at 10 µM
T1 sequence (P25024 whole entry): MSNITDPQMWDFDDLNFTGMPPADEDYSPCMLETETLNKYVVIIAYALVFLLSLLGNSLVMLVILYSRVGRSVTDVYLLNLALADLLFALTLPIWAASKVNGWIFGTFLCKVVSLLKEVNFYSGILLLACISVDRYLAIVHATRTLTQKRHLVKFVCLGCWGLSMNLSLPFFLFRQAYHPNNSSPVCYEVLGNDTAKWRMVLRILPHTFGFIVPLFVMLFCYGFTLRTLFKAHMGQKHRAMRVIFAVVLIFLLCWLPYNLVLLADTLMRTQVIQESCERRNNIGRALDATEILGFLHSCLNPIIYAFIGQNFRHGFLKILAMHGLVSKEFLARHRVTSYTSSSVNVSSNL

[3] = biological target: T2, Vasoactive intestinal polypeptide receptor 1 (Homo sapiens, UniProt P32241); type: cell membranes, Membrane; conditions: ht-29; note: in other assays of this panel Not Active means under 50% inhibition at 10 µM
T2 sequence (P32241 whole entry): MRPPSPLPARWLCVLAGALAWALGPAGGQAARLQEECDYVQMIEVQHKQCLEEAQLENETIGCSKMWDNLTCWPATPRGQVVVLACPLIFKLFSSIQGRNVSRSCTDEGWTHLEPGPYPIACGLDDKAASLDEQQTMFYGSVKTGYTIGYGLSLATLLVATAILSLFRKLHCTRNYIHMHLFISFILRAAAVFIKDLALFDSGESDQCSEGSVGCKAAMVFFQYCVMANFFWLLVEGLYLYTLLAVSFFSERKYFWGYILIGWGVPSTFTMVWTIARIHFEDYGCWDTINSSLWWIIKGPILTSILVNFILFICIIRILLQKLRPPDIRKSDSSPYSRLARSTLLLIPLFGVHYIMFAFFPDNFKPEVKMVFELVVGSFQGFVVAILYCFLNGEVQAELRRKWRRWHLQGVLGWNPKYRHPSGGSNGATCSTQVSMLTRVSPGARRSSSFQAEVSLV

[4] = biological target: Matrix metalloproteinase-9 (Homo sapiens, UniProt P14780); type: cell-based;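 note: inhibition of isolated MMP-9 enzyme activity toward a synthetic peptide substrate, from the DrugMatrix protease screening panel; in other assays of this panel Not Active means under 50% inhibition at 10 µM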
Sequence of Matrix metalloproteinase-9 (P14780 whole entry): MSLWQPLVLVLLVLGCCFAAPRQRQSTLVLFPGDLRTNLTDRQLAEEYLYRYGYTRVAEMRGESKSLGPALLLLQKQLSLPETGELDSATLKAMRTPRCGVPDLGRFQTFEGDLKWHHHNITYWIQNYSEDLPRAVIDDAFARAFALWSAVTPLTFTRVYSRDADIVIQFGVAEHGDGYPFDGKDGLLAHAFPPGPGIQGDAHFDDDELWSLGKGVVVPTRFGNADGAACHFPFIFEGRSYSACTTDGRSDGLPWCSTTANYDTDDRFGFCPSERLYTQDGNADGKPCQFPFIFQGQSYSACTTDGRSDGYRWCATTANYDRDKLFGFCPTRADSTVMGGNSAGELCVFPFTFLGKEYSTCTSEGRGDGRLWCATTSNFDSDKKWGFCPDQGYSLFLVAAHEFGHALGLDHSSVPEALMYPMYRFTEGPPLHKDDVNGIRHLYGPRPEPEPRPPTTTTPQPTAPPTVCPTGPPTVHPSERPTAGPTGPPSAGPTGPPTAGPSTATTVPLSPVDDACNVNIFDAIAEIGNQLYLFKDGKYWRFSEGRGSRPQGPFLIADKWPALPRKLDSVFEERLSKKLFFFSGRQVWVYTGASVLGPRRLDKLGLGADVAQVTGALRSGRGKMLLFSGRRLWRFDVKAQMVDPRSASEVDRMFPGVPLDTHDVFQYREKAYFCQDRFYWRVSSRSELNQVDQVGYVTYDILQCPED

[5] = biological target: cGMP-specific 3',5'-cyclic phosphodiesterase (Homo sapiens, UniProt O76074); assay: DRUGMATRIX: Phosphodiesterase PDE5 enzyme inhibition (substrate: [3H]cGMP + cGMP); type: tissue-based, Platelet; conditions: Not Active = under 50% inhibition at 10 µM
[6] = biological target: Beta-3 adrenergic receptor (Homo sapiens, UniProt P13945); assay: DRUGMATRIX: Adrenergic beta3 radioligand binding (ligand: [125I] Cyanopindolol); type: cell membranes, HEK293, Membrane; conditions: Not Active = under 50% inhibition at 10 µM
Sequence of Beta-3 adrenergic receptor (P13945 whole entry): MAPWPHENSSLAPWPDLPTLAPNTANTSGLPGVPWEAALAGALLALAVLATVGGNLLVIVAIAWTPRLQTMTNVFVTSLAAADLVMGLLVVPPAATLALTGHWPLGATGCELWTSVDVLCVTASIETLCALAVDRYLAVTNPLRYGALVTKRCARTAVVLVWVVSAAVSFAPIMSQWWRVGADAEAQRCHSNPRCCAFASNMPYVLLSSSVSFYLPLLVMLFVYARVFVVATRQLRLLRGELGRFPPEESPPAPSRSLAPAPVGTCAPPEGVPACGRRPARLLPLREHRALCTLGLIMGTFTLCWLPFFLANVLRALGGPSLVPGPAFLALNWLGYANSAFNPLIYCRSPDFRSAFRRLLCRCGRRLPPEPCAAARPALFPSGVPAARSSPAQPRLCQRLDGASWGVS

[7] = DRUGMATRIX: ATPase, Na+/K+ enzyme inhibition (substrate: ATP); type: tissue-based, Sus scrofa, Heart; conditions: Not Active = under 50% inhibition at 10 µM

Sequence of Beta-2 adrenergic receptor (P07550 whole entry): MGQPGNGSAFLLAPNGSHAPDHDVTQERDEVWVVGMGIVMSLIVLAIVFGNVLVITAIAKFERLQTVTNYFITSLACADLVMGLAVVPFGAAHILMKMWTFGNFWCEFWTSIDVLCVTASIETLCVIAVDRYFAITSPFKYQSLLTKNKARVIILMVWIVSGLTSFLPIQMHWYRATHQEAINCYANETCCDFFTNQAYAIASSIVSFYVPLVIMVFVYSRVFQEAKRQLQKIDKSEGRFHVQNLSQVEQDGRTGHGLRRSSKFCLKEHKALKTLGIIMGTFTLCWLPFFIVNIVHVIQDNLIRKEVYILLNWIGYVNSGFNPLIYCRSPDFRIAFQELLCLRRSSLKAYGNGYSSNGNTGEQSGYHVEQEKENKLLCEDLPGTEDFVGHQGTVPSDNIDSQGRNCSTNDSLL

CN1C(=O)OC(C)(C)C1=O [TRIMETHADIONE]
IC50 ([1]; cho): Not Active
IC50 [2]: Not Active
IC50 [3]: Not Active
IC50 [4]: Not Active
IC50 ([5]; platelet): Not Active
IC50 ([6]; hek293): Not Active
IC50 [7]: Not Active
Ki [7]: Not Active

CCC(C)(C)C(=O)O[C@H]1C[C@@H](C)C=C2C=C[C@H](C)[C@H](CC[C@@H]3C[C@@H](O)CC(=O)O3)[C@H]21 [SIMVASTATIN]
IC50 ([1]; cho): Not Active
IC50 [2]: Not Active
IC50 [3]: Not Active
IC50 [4]: Not Active
IC50 ([5]; platelet): Not Active
IC50 ([6]; hek293): Not Active
IC50 [7]: Not Active
Ki [7]: Not Active

Cc1ccc(S(=O)(=O)NC(=O)NN2CCCCCC2)cc1 [TOLAZAMIDE]
IC50 ([1]; cho): Not Active
IC50 [2]: Not Active
IC50 [3]: Not Active
IC50 [4]: Not Active
IC50 ([5]; platelet): Not Active
IC50 ([6]; hek293): Not Active
IC50 [7]: Not Active
Ki [7]: Not Active

CC(Cl)(Cl)Cl [TRICHLOROETHANE]
IC50 ([1]; cho): Not Active
IC50 [2]: Not Active
IC50 [3]: Not Active
IC50 [4]: Not Active
IC50 ([5]; platelet): Not Active
IC50 ([6]; hek293): Not Active
IC50 [7]: Not Active
Ki [7]: Not Active

CC(C)(C)NC[C@H](O)COc1cccc2c1CCCC2=O [LEVOBUNOLOL]
IC50 ([1]; read-out: IC50): 0.793 nM
Ki ([1]; read-out: Ki): 0.546 nM
IC50 [2]: Not Active
IC50 [3]: Not Active
IC50 [4]: Not Active
IC50 ([5]; platelet): Not Active
IC50 ([6]; read-out: IC50): 340 nM
Ki ([6]; read-out: Ki): 255 nM
IC50 [7]: Not Active
Ki [7]: Not Active

CCN1CCCC1CNC(=O)c1cc(S(N)(=O)=O)ccc1OC (centres undefined) [SULPIRIDE]
IC50 ([1]; cho): Not Active
IC50 [2]: Not Active
IC50 [3]: Not Active
IC50 [4]: Not Active
IC50 ([5]; platelet): Not Active
IC50 ([6]; hek293): Not Active
IC50 [7]: Not Active
Ki [7]: Not Active

Cc1cccc(C)c1NC(=O)C(C)N (centres undefined) [TOCAINIDE]
IC50 ([1]; cho): Not Active
IC50 [2]: Not Active
IC50 [3]: Not Active
IC50 [4]: Not Active
IC50 ([5]; platelet): Not Active
IC50 ([6]; hek293): Not Active
IC50 [7]: Not Active
Ki [7]: Not Active

CCOC(=O)C1=C(C)NC(C)=C(C(=O)OCC)C1c1ccccc1/C=C/C(=O)OC(C)(C)C [LACIDIPINE]
IC50 ([1]; cho): Not Active
IC50 [2]: Not Active
IC50 [3]: Not Active
IC50 [4]: Not Active
IC50 ([5]; platelet): Not Active
IC50 ([6]; hek293): Not Active
IC50 [7]: Not Active
Ki [7]: Not Active

C=CCc1ccc2c(c1)OCO2 [SAFROLE]
IC50 ([1]; cho): Not Active
IC50 [2]: Not Active
IC50 [3]: Not Active
IC50 [4]: Not Active
IC50 ([5]; platelet): Not Active
IC50 ([6]; hek293): Not Active
IC50 [7]: Not Active
Ki [7]: Not Active

O=C(OC[C@H]1O[C@@H](OC(=O)c2cc(O)c(O)c(OC(=O)c3cc(O)c(O)c(O)c3)c2)[C@H](OC(=O)c2cc(O)c(O)c(OC(=O)c3cc(O)c(O)c(O)c3)c2)[C@@H](OC(=O)c2cc(O)c(O)c(OC(=O)c3cc(O)c(O)c(O)c3)c2)[C@@H]1OC(=O)c1cc(O)c(O)c(OC(=O)c2cc(O)c(O)c(O)c2)c1)c1cc(O)c(O)c(OC(=O)c2cc(O)c(O)c(O)c2)c1 [TANNIC ACID]
IC50 ([1]; cho): Not Active
IC50 [2]: Not Active
IC50 [3]: Not Active
IC50 [4]: Not Active
IC50 ([5]; read-out: IC50): 4700 nM
IC50 ([6]; hek293): Not Active
IC50 ([7]; read-out: IC50): 1340 nM

CO[C@@]12[C@H](COC(N)=O)C3=C(C(=O)C(C)=C(N)C3=O)N1C[C@@H]1N[C@@H]12 [MITOMYCIN]
IC50 ([1]; cho): Not Active
IC50 [2]: Not Active
IC50 [3]: Not Active
IC50 [4]: Not Active
IC50 ([5]; platelet): Not Active
IC50 ([6]; hek293): Not Active
IC50 [7]: Not Active
Ki [7]: Not Active

CN1C[C@H](CNC(=O)OCc2ccccc2)C[C@@H]2c3cccc4c3c(cn4C)C[C@H]21 [METERGOLINE]
IC50 ([1]; cho): Not Active
IC50 [2]: Not Active
IC50 [3]: Not Active
IC50 [4]: Not Active
IC50 ([5]; platelet): Not Active
IC50 ([6]; hek293): Not Active
IC50 [7]: Not Active
Ki [7]: Not Active

Cc1[nH]c(=O)c(C#N)cc1-c1ccncc1 [MILRINONE]
IC50 ([1]; cho): Not Active
IC50 [2]: Not Active
IC50 [3]: Not Active
IC50 [4]: Not Active
IC50 ([5]; platelet): Not Active
IC50 ([6]; hek293): Not Active
IC50 [7]: Not Active
Ki [7]: Not Active

O=C1CC[C@@]2(O)[C@H]3Cc4ccc(O)c5c4[C@@]2(CCN3CC2CC2)[C@H]1O5 [NALTREXONE]
IC50 ([1]; cho): Not Active
IC50 [2]: Not Active
IC50 [3]: Not Active
IC50 [4]: Not Active
IC50 ([5]; platelet): Not Active
IC50 ([6]; hek293): Not Active
IC50 [7]: Not Active
Ki [7]: Not Active

COC(=O)Nc1nc2ccc(C(=O)c3ccccc3)cc2[nH]1 [MEBENDAZOLE]
IC50 ([1]; cho): Not Active
IC50 [2]: Not Active
IC50 [3]: Not Active
IC50 [4]: Not Active
IC50 ([5]; platelet): Not Active
IC50 ([6]; hek293): Not Active
IC50 [7]: Not Active
Ki [7]: Not Active

CC(=O)O[C@]1(C(C)=O)CC[C@H]2[C@@H]3C[C@H](C)C4=CC(=O)CC[C@]4(C)[C@H]3CC[C@@]21C [MEDROXYPROGESTERONE ACETATE]
IC50 ([1]; cho): Not Active
IC50 [2]: Not Active
IC50 [3]: Not Active
IC50 [4]: Not Active
IC50 ([5]; platelet): Not Active
IC50 ([6]; hek293): Not Active
IC50 [7]: Not Active
Ki [7]: Not Active

Cc1cn([C@H]2C=C[C@@H](CO)O2)c(=O)[nH]c1=O [STAVUDINE]
IC50 ([1]; cho): Not Active
IC50 [2]: Not Active
IC50 [3]: Not Active
IC50 [4]: Not Active
IC50 ([5]; platelet): Not Active
IC50 ([6]; hek293): Not Active
IC50 [7]: Not Active
Ki [7]: Not Active

Cc1cnc(NC(=O)C2=C(O)c3ccccc3S(=O)(=O)N2C)s1 [MELOXICAM]
IC50 ([1]; cho): Not Active
IC50 [2]: Not Active
IC50 [3]: Not Active
IC50 [4]: Not Active
IC50 ([5]; platelet): Not Active
IC50 ([6]; hek293): Not Active
IC50 [7]: Not Active
Ki [7]: Not Active

CC(O)C(=O)O (centres undefined) [LACTIC ACID]
IC50 ([1]; cho): Not Active
IC50 [2]: Not Active
IC50 [3]: Not Active
IC50 [4]: Not Active
IC50 ([5]; platelet): Not Active
IC50 ([6]; hek293): Not Active
IC50 [7]: Not Active
Ki [7]: Not Active

C1CCN2C[C@@H]3C[C@@H](CN4CCCC[C@@H]34)[C@H]2C1 [SPARTEINE]
IC50 ([1]; cho): Not Active
IC50 [2]: Not Active
IC50 [3]: Not Active
IC50 [4]: Not Active
IC50 ([5]; platelet): Not Active
IC50 ([6]; hek293): Not Active
IC50 [7]: Not Active
Ki [7]: Not Active

CC(N)C12CC3CC(CC(C3)C1)C2 (centres undefined) [RIMANTADINE]
IC50 ([1]; cho): Not Active
IC50 [2]: Not Active
IC50 [3]: Not Active
IC50 [4]: Not Active
IC50 ([5]; platelet): Not Active
IC50 ([6]; hek293): Not Active
IC50 [7]: Not Active
Ki [7]: Not Active
